Measured values published in ChEMBL document CHEMBL1149751, “Bioactive constituents from the twigs of Asimina parviflora” (J Nat Prod, 1992).
Converted amounts (≈) assume the structure as drawn.

Assays:
[1] = tested on: HT-29; experiment: Cytotoxicity against human HT-29 cells after 7 days; format: functional; conditions: for EC50: Homo sapiens, HT-29, 168 h, read-out: ED50 (the source's name)
[2] = Toxicity in brine shrimp; format: organism-based; conditions: artemia, in vivo
[3] = tested on: MCF7; experiment: Cytotoxicity against human MCF7 cells after 7 days; format: functional; conditions: MCF7, 168 h, read-out: ED50 (the source's name)
[4] = tested on: A549; experiment: Cytotoxicity against human A549 cells after 7 days; format: functional; conditions: for EC50: Homo sapiens, A549, 168 h, read-out: ED50 (the source's name)

SMILES | EC50 [1] | LC50 [2] | EC50 [3] | ED50 [4] | EC50 [4] | ED50 [1]
COc1cccc2c1C(=O)c1c(O)c3c(c(O)c1C2=O)C[C@@](O)(C(=O)CO)C[C@@H]3O[C@H]1C[C@H](N)[C@H](O)[C@H](C)O1 [DOXORUBICIN] | 0.00445 µg/mL (≈ 0.00819 µM) | 0.088 µg/mL (≈ 0.162 µM) | 0.231 µg/mL (≈ 0.425 µM) | 5.04 ×10⁻⁴ ug/ml | – | –
COc1cc([C@H]2OC[C@H]3[C@@H]2CO[C@@H]3c2cc(OC)c(O)c(OC)c2)cc(OC)c1O [SYRINGARESINOL] | 0.227 µg/mL (≈ 0.542 µM) | 0.65 µg/mL (≈ 1.55 µM) | 30.3 µg/mL (≈ 72.4 µM) | – | 13.9 µg/mL (≈ 33.3 µM) | –
CCCCCCCCCC[C@@H](O)[C@H]1CC[C@H]([C@H]2CC[C@H]([C@H](O)CCCCCCCCCC[C@@H](O)CC3=C[C@H](C)OC3=O)O2)O1 [ASIMICIN] | – | 0.025 µg/mL (≈ 0.0401 µM) | – | – | – | –
CCCCCCCCCCCCCCC/C=C\CCCCC(N)=O | < 0.01 µg/mL | 2.45 µg/mL (≈ 7.26 µM) | 2.91 µg/mL (≈ 8.62 µM) | – | 3.16 µg/mL (≈ 9.36 µM) | –
CCCCCCCCCCC(O)C1CCC(C2CCC(C(O)CCCCCCCC[C@H](O)CC3=C[C@@H](C)OC3=O)O2)O1 (stereo partly drawn) [ASIMICIN] | – | – | – | 8.43 ×10⁻⁴ ug/ml | – | <1 ×10⁻¹⁵ ug/ml
COc1c(OC)c2c(C)cc3c(O)cccc3c2[nH]c1=O [ASIMICILONE] | 3.25 µg/mL (≈ 11.4 µM) | 2.15 µg/mL (≈ 7.54 µM) | 7.22 µg/mL (≈ 25.3 µM) | – | 2.13 µg/mL (≈ 7.47 µM) | –
CC[C@H](CC[C@@H](C)[C@H]1CC[C@H]2[C@@H]3CC=C4C[C@@H](O[C@@H]5O[C@H](CO)[C@@H](O)[C@H](O)[C@H]5O)CC[C@]4(C)[C@H]3CC[C@]12C)C(C)C [SITOGLUSIDE] | 0.444 µg/mL (≈ 0.77 µM) | 0.14 µg/mL (≈ 0.243 µM) | 44.4 µg/mL (≈ 77 µM) | – | 4.73 µg/mL (≈ 8.2 µM) | –
